How the values were obtained:
[1] = tested on: Danio rerio embryo; experiment: EC50 Curvature_Increase
Procedure: (§1)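 Zebrafish embryos (UFZ-OBI strain) were exposed from 2 hpf for 48 h (2 dpf) or 96 h (4 dpf) at 28 °C; spontaneous tail coiling was scored at 25 hpf. Morphological features from automated image analysis (FishInspector), heart rate and locomotor response were fitted with drc models. Quantal endpoints were dichotomised at 2.5 SD from controls and fitted with a log-logistic model; heart rate, pigmentation and STC were normalised to the replicate control mean. Betamethasone was tested as betamethasone dipropionate, diflorasone as diflorasone diacetate.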

[2] = tested on: Danio rerio embryo; experiment: EC20 LMR dark; higher = less potent; details: exposure time: 4 dpf
Procedure: as §1

[3] = tested on: Danio rerio embryo; experiment: EC10 Eye-jaw distance_Decrease; higher = less potent; details: exposure time: 4 dpf
Procedure: as §1

[4] = tested on: Danio rerio embryo; experiment: EC20 Eye-jaw distance_Decrease; higher = less potent; details: exposure time: 4 dpf
Procedure: as §1

[5] = tested on: Danio rerio embryo; details: exposure time: 4 dpf
Procedure: as §1

[6] = tested on: Danio rerio embryo; experiment: EC10 Otolith-eye distance_Decrease; higher = less potent; details: exposure time: 4 dpf
Procedure: as §1

[7] = tested on: Danio rerio embryo
Procedure: as §1

[8] = tested on: Danio rerio embryo; experiment: EC20 Body length_Decrease; higher = less potent
Procedure: as §1

[9] = tested on: Danio rerio embryo; experiment: EC20 Bladder size_Decrease; higher = less potent; details: exposure time: 4 dpf
Procedure: as §1

[10] = tested on: Danio rerio embryo; experiment: EC50 Eye size_Decrease
Procedure: as §1

[11] = tested on: Danio rerio embryo; experiment: EC10 Bladder size_Decrease; higher = less potent; details: exposure time: 4 dpf
Procedure: as §1

[12] = tested on: Danio rerio embryo; experiment: EC20 Curvature_Increase; higher = less potent
Procedure: as §1

[13] = tested on: Danio rerio embryo; experiment: EC50 Eye-jaw distance_Decrease; details: exposure time: 4 dpf
Procedure: as §1

[14] = tested on: Danio rerio embryo; experiment: EC10 LMR dark; higher = less potent; details: exposure time: 4 dpf
Procedure: as §1

[15] = tested on: Danio rerio embryo; experiment: EC50 Otolith-eye distance_Decrease; details: exposure time: 4 dpf
Procedure: as §1

[16] = tested on: Danio rerio embryo; experiment: EC10 Curvature_Increase; higher = less potent
Procedure: as §1

[17] = tested on: Danio rerio embryo; experiment: EC50 Yolk sac size_Increase; details: exposure time: 4 dpf
Procedure: as §1

[18] = tested on: Danio rerio embryo; experiment: EC20 Otolith-eye distance_Decrease; higher = less potent; details: exposure time: 4 dpf
Procedure: as §1

[19] = tested on: Danio rerio embryo; experiment: EC20 Pericard size_Increase; higher = less potent; details: exposure time: 4 dpf
Procedure: as §1

[20] = tested on: Danio rerio embryo; experiment: EC50 Bladder size_Decrease; details: exposure time: 4 dpf
Procedure: as §1

[21] = tested on: Danio rerio embryo; experiment: EC10 Body length_Decrease; higher = less potent
Procedure: as §1

[22] = tested on: Danio rerio embryo; experiment: EC20 Any effect; higher = less potent
Procedure: as §1

[23] = tested on: Danio rerio embryo; experiment: EC50 Pericard size_Increase; details: exposure time: 4 dpf
Procedure: as §1

[24] = tested on: Danio rerio embryo; experiment: EC10 Pericard size_Increase; higher = less potent; details: exposure time: 4 dpf
Procedure: as §1

[25] = tested on: Danio rerio embryo; experiment: EC10 Yolk sac size_Increase; higher = less potent; details: exposure time: 4 dpf
Procedure: as §1

[26] = tested on: Danio rerio embryo; experiment: EC50 Body length_Decrease
Procedure: as §1

[27] = tested on: Danio rerio embryo; experiment: EC20 Yolk sac size_Increase; higher = less potent; details: exposure time: 4 dpf
Procedure: as §1

[28] = tested on: Danio rerio embryo; experiment: spontaneous tail coiling frequency (coils/min/embryo); higher = more spontaneous movement; details: 25 hpf
Procedure: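 Spontaneous tail coilings of zebrafish embryos exposed from 2 hpf were recorded at 24-25 hpf in 1-min videos and detected by a KNIME workflow from grey-value variance. Betamethasone was tested as the dipropionate, diflorasone as the diacetate.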

[29] = tested on: Danio rerio embryo; experiment: EC10 Any effect; higher = less potent
Procedure: as §1

## C[Si](Cn1cncn1)(c1ccc(F)cc1)c1ccc(F)cc1 [Flusilazole]
[1]; exposure time: 2 dpf
  EC50 Curvature Increase: 9.58 µM
[1]; exposure time: 4 dpf
  EC50 Curvature Increase: 5.85 µM
[2]
  EC20 LMR dark: 1.72 µM
[3]
  EC10 Eye-jaw distance Decrease: 2.2 µM
[4]
  EC20 Eye-jaw distance Decrease: 2.67 µM
[5]
  EC50 LMR dark: 2.77 µM
[6]
  EC10 Otolith-eye distance Decrease: 3.65 µM
[7]; exposure time: 2 dpf
  EC50 Any effect: 7.6 µM
[7]; exposure time: 4 dpf
  EC50 Any effect: 2.65 µM
[7]; exposure time: 25 h
  EC50 STC decrease: 8.34 µM
[8]; exposure time: 2 dpf
  EC20 Body length Decrease: 8.01 µM
[8]; exposure time: 4 dpf
  EC20 Body length Decrease: 2.55 µM
[9]
  EC20 Bladder size Decrease: 1.69 µM
[10]; exposure time: 2 dpf
  EC50 Eye size Decrease: 22.3 µM
[10]; exposure time: 4 dpf
  EC50 Eye size Decrease: 5.51 µM
[11]
  EC10 Bladder size Decrease: 1.46 µM
[12]; exposure time: 2 dpf
  EC20 Curvature Increase: 7.67 µM
[12]; exposure time: 4 dpf
  EC20 Curvature Increase: 3.03 µM
[13]
  EC50 Eye-jaw distance Decrease: 3.73 µM
[14]
  EC10 LMR dark: 1.3 µM
[15]
  EC50 Otolith-eye distance Decrease: 5.51 µM
[16]; exposure time: 2 dpf
  EC10 Curvature Increase: 6.73 µM
[16]; exposure time: 4 dpf
  EC10 Curvature Increase: 2.07 µM
[17]
  EC50 Yolk sac size Increase: 10.1 µM
[18]
  EC20 Otolith-eye distance Decrease: 4.25 µM
[19]
  EC20 Pericard size Increase: 5.53 µM
[20]
  EC50 Bladder size Decrease: 2.14 µM
[21]; exposure time: 2 dpf
  EC10 Body length Decrease: 6.91 µM
[21]; exposure time: 4 dpf
  EC10 Body length Decrease: 2.31 µM
[22]; exposure time: 2 dpf
  EC20 Any effect: 6.04 µM
[22]; exposure time: 4 dpf
  EC20 Any effect: 1.92 µM
[23]
  EC50 Pericard size Increase: 6.51 µM
[24]
  EC10 Pericard size Increase: 5.02 µM
[25]
  EC10 Yolk sac size Increase: 3.89 µM
[26]; exposure time: 2 dpf
  EC50 Body length Decrease: 10.3 µM
[26]; exposure time: 4 dpf
  EC50 Body length Decrease: 3.04 µM
[27]
  EC20 Yolk sac size Increase: 5.53 µM
[28]; 1.98167 µM
  spontaneous tail coiling frequency: 2.65
[28]; 3.96335 µM
  spontaneous tail coiling frequency: 1.93
[28]; 6.3 µM
  spontaneous tail coiling frequency: 1.95
[28]; 7.92669 µM
  spontaneous tail coiling frequency: 1.22
[28]; 9.4 µM
  spontaneous tail coiling frequency: 1.84
[28]; 14.1 µM
  spontaneous tail coiling frequency: 1.52
[28]; 15.8534 µM
  spontaneous tail coiling frequency: 0
[28]; 21.1 µM
  spontaneous tail coiling frequency: 0
[28]; 31.7 µM
  spontaneous tail coiling frequency: 0
[28]; 31.7068 µM
  spontaneous tail coiling frequency: 0
[28]; 47.6 µM
  spontaneous tail coiling frequency: 0
[29]; exposure time: 2 dpf
  EC10 Any effect: 5.28 µM
[29]; exposure time: 4 dpf
  EC10 Any effect: 1.6 µM
